Assay results published in patent publication US8999964B2, “TGR5 modulators and methods of use thereof” (Intercept Pharmaceuticals, Inc., priority 2008, dated 2015).
Where a name gives a salt, the structure may show the parent alone.

Columns and labels:
[1] = 1-Octanol/water partition coefficient (shake-flask); settings: bile acids as ionized species, pH 8
Experimental: The octanol/water partition coefficient was measured for molecules in their ionized form and therefore the carboxy analogues were studied at a relatively high pH (8 to 9) to ensure full ionization of the carboxyl group. The 1-Octanol/water partition coefficient (log P) was evaluated using a conventional shake-flask procedure. […] The aqueous buffer was previously pre-saturated with 1-octanol, 5 ml of 1-octanol pre-saturated with water was then added and the samples were left to equilibrate for 2 weeks under continuous stirring at room temperature. After centrifugation the two phases were carefully separated. […] The flow rate was 150 μal/min and the column was maintained at 45° C.

in vitro = settings: human
hTGR5 [2] = molecular target: T1, hTGR5 (Homo sapiens, UniProt Q8TDU6); experiment: FRET assay (intracellular cAMP) in NCI-H716 cells; type: cell-based; set-up: Human intestinal cell lines (NCI-H716) were plated in 96-well plates; endogenous in cells; host or cells: NCI-H716
T1 sequence (Q8TDU6 1-330): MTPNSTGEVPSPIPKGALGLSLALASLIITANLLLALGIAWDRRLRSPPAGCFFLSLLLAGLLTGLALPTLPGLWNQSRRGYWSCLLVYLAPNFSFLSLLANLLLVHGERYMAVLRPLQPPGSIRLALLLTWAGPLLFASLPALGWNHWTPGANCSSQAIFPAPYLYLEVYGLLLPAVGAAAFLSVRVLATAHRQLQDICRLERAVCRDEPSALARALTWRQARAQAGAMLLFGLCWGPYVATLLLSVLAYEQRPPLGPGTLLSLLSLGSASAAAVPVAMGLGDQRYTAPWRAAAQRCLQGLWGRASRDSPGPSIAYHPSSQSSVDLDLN
Experimental: The receptor binding assay was performed by measuring the level of cyclic AMP (cAMP) using FRET assay. Human intestinal cell lines (NCI-H716) were plated in 96-well plates coated with 0.75 mg/ml Matrigel (BD Biosciences) according to manufacturer's instructions just prior to use, at a density of 12×10^3 cells/well in DMEM supplemented with 10% (v/v) FBS, 100 units/ml penicillin and 100 μg/ml streptomycin sulfate, and cultured for 24 h, which allowed cell adhesion to the bottom of the plate. The cells were washed twice with PBS and medium was exchanged for cAMP assay medium [OPTIMEM containing 0.1% (w/v) BSA and 1 mM 3-isobutyl-1-methylxanthine (IBMX)]. […] The level of intracellular cAMP was determined with Lance kit (PerkinElmer). Litocholic acid was used as control ligand. Z′ factor was used to validate assays. Non linear regression curves, without constraints, were performed by using four parameter equation and GraphPad Prism Software (GraphPad Inc.), to obtain the EC50 values.
After subtracting the average value of the basal (vehicle-treated) condition, values were applied to EC50 and/or efficacy determinations. Calculation of average EC50 and comparison of the EC50 between different compounds were done after transformation to logarithms.

CAR = molecular target: T2, CAR (Homo sapiens, UniProt Q14994); experiment: CAR coactivator recruitment (Lanthascreen); type: biochemical; settings: Table 6; coactivator recruitment (Lanthascreen)
T2 construct: purchased Invitrogen
T2 sequence (Q14994 109-352 limits assumed): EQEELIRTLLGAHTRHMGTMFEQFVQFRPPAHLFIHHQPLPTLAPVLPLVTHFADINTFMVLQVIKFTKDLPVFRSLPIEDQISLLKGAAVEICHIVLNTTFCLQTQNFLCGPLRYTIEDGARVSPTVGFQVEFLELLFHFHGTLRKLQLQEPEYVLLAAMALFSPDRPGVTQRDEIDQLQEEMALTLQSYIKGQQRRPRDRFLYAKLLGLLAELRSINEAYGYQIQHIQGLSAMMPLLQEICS

[3] = Critical micellar concentration by surface tension measurements; type: physicochemical
Experimental: The critical micellar concentration (CMC) was determined by surface tension (ST) measurements using a maximum bubble-pressure method which give surface tension values slightly affected by potential impurities […] static methods. […] The surface tension values were plotted against the logarithm of the bile salt concentration; the regression lines corresponding to the two parts of the curve (monomeric and micellar phases) were calculated using the method of least squares, and the intersection of the lines was taken as the CMC value. From the ST vs concentration curves the value of the surface tension at the CMC (equilibrium between monomers and multimers species) was also calculated giving information about the detergency power which is related to the size of the micelles with associate surface tension lowering capacity. The CMC was evaluated by surface tension measurements in non equilibrium conditions i.e. in conditions that impurities slightly affect the surface tension results (FIG. 6). […] The presence of a hydroxyl group in the C-16 beta position reduces the hydrophobic area responsible for back to back interaction, which is to form micelles and therefore, the micelles are small and poorly detergent. This property confers to the molecule a low toxicity when accumulated in a given biological fluid or organ.

[4] = Bile fistula rat, femoral (iv) infusion: bile flow, biliary secretion, metabolism; settings: for Conc. in bile: rat bile; for Secretion (biliary): rat
intestinal bacteria = experiment: In vitro metabolic stability in human stools culture; type: in vitro ADME
Experimental: Homogenized fresh human stools (500 mg) were transferred into sterile vials to which 5 mL of sterilized chopped meat-glucose medium (Scott Lab., Fiskville, R.I.) was added. BAs were then added at a final concentration of 0.05 mM. Vials were incubated at 37° C.; then, at 0, 1, 2, 4, 8 and 24 h after the addition of the BA, the reaction was stopped with 150 μL of 30% KOH. The samples were centrifuged at 3500 rpm for 10 min; from the supernatant the BA were isolated by C-18 solid-phase extraction and analyzed by TLC and HPLC-ES-MS/MS.
Thin-layer chromatography (TLC), utilizing silica gel 0.25 mm thickness plates (Merck, Darmstat, Germany), was employed as the first screening test. The solvent system used for the separation of conjugated BA was composed of propionic acid/isoamyl acetate/water/N-propanol (3:4:1:2, v/v/v/v; solvent I), and that of the unconjugated BA was acetic acid/carbon tetrachloride/isopropyl ether/isoamyl acetate/water/N-propanol/benzene (1:4:6:8:2:2, v/v/v/v/v/v; solvent II).

PXR = molecular target: T3, PXR (Homo sapiens, UniProt O75469); experiment: PXR ligands competition assay (binding assay); settings: Table 6
T3 sequence (O75469 1-434): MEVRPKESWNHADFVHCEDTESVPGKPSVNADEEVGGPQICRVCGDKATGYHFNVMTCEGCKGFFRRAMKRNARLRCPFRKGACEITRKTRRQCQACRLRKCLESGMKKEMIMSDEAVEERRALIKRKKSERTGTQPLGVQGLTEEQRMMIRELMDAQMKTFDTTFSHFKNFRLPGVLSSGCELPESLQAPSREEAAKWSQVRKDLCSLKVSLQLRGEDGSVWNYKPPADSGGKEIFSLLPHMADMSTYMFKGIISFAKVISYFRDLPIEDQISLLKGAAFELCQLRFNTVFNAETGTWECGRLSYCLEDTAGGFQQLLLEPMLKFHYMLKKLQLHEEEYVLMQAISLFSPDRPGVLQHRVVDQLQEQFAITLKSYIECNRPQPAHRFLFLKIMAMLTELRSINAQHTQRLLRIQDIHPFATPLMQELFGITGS

hTGR5 [5] = molecular target: T1, hTGR5; experiment: FRET-cAMP on TGR5 overexpressing Hek293 cells; type: cell-based; set-up: Human intestinal cell lines (NCI-H716) were plated in 96-well plates; endogenous in cells
[6] = femoral infusion 1 μmol/kg/min 1 h, 75 min

CC[C@H]1[C@@H](O)[C@@H]2[C@H](CC[C@]3(C)[C@@H]([C@H](C)CCC(=O)O)[C@@H](O)C[C@@H]23)[C@@]2(C)CC[C@@H](O)C[C@@H]12 [Compound 10, 3α,7α,16β-trihydroxy-6α-ethyl-5β-cholan-24-oic acid sodium salt]
LogPA-: 1-octanol-water partition coefficient [1]: 1.6 | EC50 at 4 h (in vitro): > 1 mM | EC50 (hTGR5 [2]; FRET (cAMP) NCI-H716 hTGR5 EC50, Table 1, NCI-H716 cells): 650 nM | EC50 (hTGR5 [2]; TGR5 Activation EC50, Table 6, cAMP level on NCI-H716): 600 nM | CAR Activation EC50 (CAR): No activity | Detergency (CMC and surface tension lowering capacity) ([3]; NaCl […]): moderate detergent | CMC […] Na+ ([3]; […] NaCl water solution): 5.9 mM | STCMC: Surface Tension at CMC ([3]; […] NaCl water solution): 52.4 Dyne/cm | Hepatic metabolism, species in bile after iv administration ([4]; bile fistula rat, mass spectrometry): secreted in bile as such and mainly conjugated with taurine | Conc. in bile [4, 6]: 0.04 mmol/L | Secretion (biliary) [4, 6]: 0.002 µmol/kg/min | Biliary secretion after iv infusion ([4]; femoral infusion 1 μmol/kg/min, bile fistula rat): not efficient | Conc. in bile ([4]; femoral infusion, 90 min): 2.3 mmol/L | Conc. in bile ([4]; femoral infusion, 120 min): 0.90 mmol/L | Conc. in bile ([4]; femoral infusion, 150 min): 0.06 mmol/L | Conc. in bile ([4]; femoral infusion, 180 min): 0.04 mmol/L | Conc. in bile ([4]; femoral infusion, 210 min): 0.02 mmol/L | Secretion (biliary) ([4]; femoral infusion, 90 min): 0.127 µmol/kg/min | Secretion (biliary) ([4]; femoral infusion, 120 min): 0.065 µmol/kg/min | Secretion (biliary) ([4]; femoral infusion, 150 min): 0.004 µmol/kg/min | Secretion (biliary) ([4]; femoral infusion, 180 min): 0.003 µmol/kg/min | Secretion (biliary) ([4]; femoral infusion, 210 min): 0.001 µmol/kg/min | Compound recovered unmodified in human stool cultures (intestinal bacteria; after 24 hour incubation, 0.05 mM, 37° C.): more than 85% | Side chain stability to intestinal bacteria (intestinal bacteria; human stool cultures): very stable for side chain metabolism | IC50 (PXR): 64 µM | EC50 (hTGR5 [5]): 200 nM
